# Measurements published in patent US7146204B2, “Method and apparatus for quantitatively evaluating a kidney” (Yeda Research and Development Co., Ltd., priority 2002, dated 2006).
# “Also recorded” adds a separate entry of the source.
# Legend:
# rat kidney [1] = test: dynamic 23Na MRI of renal sodium distribution after bolus injection of diuretic; format: in vivo; conditions: for characteristic time constant of sodium decay in the inner medulla: dynamic 23Na MRI after bolus injection, fitted to Equation 1, n=7; for decrease in sodium level in the inner medulla: relative to pre-treatment, diuresis steady state level, n=7
# Method: Materials and Methods—Animals: Studies were performed on female Lewis rats, 2–4 months old and weighing 250–300 g, that had free access to food and water. […] All animal protocols and maintenance procedures were in accordance with the guidelines of the Committee on Animals of the Weizmann Institute of Science, and were approved by this Committee. […] Only one diuretic was injected into each rat. […] Image analysis: Analysis of the kidney images was performed on selected regions of interest (ROIs) in the outer, median and inner parts of the kidney, representing the cortex, outer and inner medulla, respectively. The ROIs were defined on the corresponding coronal proton image recorded prior to the sodium images, at the same spatial resolution. The average digitized pixel intensity for each ROI was measured, and the sodium gradient was assessed by averaging the ratio of the sodium signal intensity between the inner and the outer medulla, and between the inner medulla and the cortex. […] In this analysis, the signal intensity in each pixel was measured from the cortex to the inner medulla along the corticomedullary axis. This yielded a graph of pixel signal intensity versus the distance of the pixel from the cortex. In the dynamic study, the average signal intensities of the inner medulla and the cortex ROIs, defined on the proton image, were measured in sodium images recorded sequentially and were then plotted against time. Statistical analysis to evaluate differences between pixels or ROIs in the same kidney, or before and after diuretic treatment, were performed by a two-tailed paired Student's t-test; otherwise, the unpaired version of this test was used. Results are presented as mean±SEM.
# rat kidney [2] = test: steady state diuresis 23Na MRI of corticomedullary sodium gradient; format: in vivo; conditions: for reduction in sodium content in the inner medulla (summary statement): after bolus injection; for change of the cortical-outer medullar sodium gradient versus control / cortical-outer medullar sodium gradient (slope): pixel-by-pixel analysis
# Method: Materials and Methods—Animals: Studies were performed on female Lewis rats, 2–4 months old and weighing 250–300 g, that had free access to food and water. Before MRI scanning, the rats were anesthetized by an intraperitoneal injection of sodium pentobarbital at a dosage of 0.04 mg/g body wt. All animal protocols and maintenance procedures were in accordance with the guidelines of the Committee on Animals of the Weizmann Institute of Science, and were approved by this Committee.
# (§1) Mannitol solution (20%, 1 ml) and saline solution (0.9% NaCl, 1 ml) were injected as a bolus into the tail vein. Only one diuretic was injected into each rat.
# In vivo MRI: ^1H and ^23Na spectra and images were recorded at 200 and 53 MHz, respectively with a 4.7 T Biospec spectrometer (Bruker, Rheinstetten, Germany) using a home-built 3 cm double-tuned surface coil. The rat was placed on the coil in a supine position, keeping the estimated kidney position approximately in the middle of the coil. 3D ^1H gradient echo images were recorded to localize the exact kidney position, using TE/TR of 6/30 ms FOV of 12×12×3.2 cm and a matrix of 256×256×32. For defining the regions of interest (ROI), 3D ^1H images were recorded with the same spatial resolution as that of the sodium images.
# In the “steady state” studies, sodium images were recorded prior to injection of the diuretic (control measurement) and fifteen minutes after its injection. 3D ^23Na gradient echo images were recorded using a TE/TR of 3.1/60 ms and a 90° OSIRREAD adiabatic pulse, FOV of 12×12×8 cm, and a matrix of 128×128×16 with 10 or 20 scans (20 or 40 min, respectively).
# Image analysis: Analysis of the kidney images was performed on selected regions of interest (ROIs) in the outer, median and inner parts of the kidney, representing the cortex, outer and inner medulla, respectively. The ROIs were defined on the corresponding coronal proton image recorded prior to the sodium images, at the same spatial resolution. The average digitized pixel intensity for each ROI was measured, and the sodium gradient was assessed by averaging the ratio of the sodium signal intensity between the inner and the outer medulla, and between the inner medulla and the cortex.
# In addition, a pixel-by-pixel analysis was performed, in order to assess the behavior of the NMR sodium signal along the corticomedullary axis. In this analysis, the signal intensity in each pixel was measured from the cortex to the inner medulla along the corticomedullary axis. This yielded a graph of pixel signal intensity versus the distance of the pixel from the cortex. In the dynamic study, the average signal intensities of the inner medulla and the cortex ROIs, defined on the proton image, were measured in sodium images recorded sequentially and were then plotted against time.
# Statistical analysis to evaluate differences between pixels or ROIs in the same kidney, or before and after diuretic treatment, were performed by a two-tailed paired Student's t-test; otherwise, the unpaired version of this test was used. Results are presented as mean±SEM.
# In-vivo MRI: ^1H and ^23Na images and spectra were recorded at 200 and 53 MHz respectively with a 4.7 T Biospec spectrometer (Bruker, Karlsrhue, Germany) using a home built 3-cm, ^1H and ^23Na tuned surface coil. The rat was placed on the coil in a supine position with the kidney positioned in the middle of the coil. Axial and coronal 3D ^1H gradient echo images were recorded for localization of the kidney using an echo time/repetition time (TE/TR) of 6/30 ms FOV of 12×12×3.2 cm and matrix of 256×256×32. 3D gradient echo ^23Na images were recorded using (TE/TR) of 1.7/60 ms and a 90° OSIRREAD adiabatic pulse, field of view (FOV) of 12×12×8 […], and matrix of 128×128×16, with 20 scans (40 min).
# The sodium image was analyzed by a pixel by pixel analysis that was performed in order to assess the behavior of the NMR sodium signal along the corticomedullary axis.
# [3] = urine sodium concentration by 23Na NMR spectroscopy; format: in vivo, rat; conditions: urine collected from 15 min after injection, n=3
# Method: as §1
# Urine sodium: Urine samples of untreated (control) and diuretic rats were collected in a metabolic cage. Collection of the urine from the diuretic rats started 15 minutes after injection of the diuretic, when the urine flow was constant. The urine samples were then centrifuged, and the supernatants transferred to a 5 mm NMR tube placed in the center of a 10 mm NMR tube. The external tube was used as an external reference, and contained a solution of 120 mM NaCl and 5 mM of the shift reagent: thulium (III) 1,4,7,10-tetraacyclododecane-1,4,7,10-tetrakis (methylene phosphonate) (TmDOTP^5−) (Macrocyclics, Dallas, Tex., USA) reaching total [Na^+] of 150 mM. ^23Na NMR spectra were recorded with a Bruker DMX-400 spectrometer (Bruker, Rheinstetten, Germany), using a multinuclei broad band probe at 106 MHz by acquiring 10 transients with 90° pulses, pulse-to-acquisition time of delay (DE) of 6 μs, 0.47 sec repetition time (TR) and 0.27 sec acquisition time. Analysis of the ^23Na spectra was performed with an XWIN-NMR Bruker software package. Sodium concentration in the urine was calculated from the integrated area of its signal referenced to the integrated area of the shifted signal of the sodium in the external tube solution (150 mM).
# rat kidney [4] = test: steady state diuresis 23Na MRI of corticomedullary sodium gradient; format: in vivo; conditions: mannitol (1 ml, 0.1N), n=7
# [5] = steady state diuresis, furosemide 10 mg/kg body wt, n=7
smiles,measurement,setting,value
NS(=O)(=O)c1cc(C(=O)O)c(NCc2ccco2)cc1Cl [furosemide],characteristic time constant of sodium decay in the inner medulla,rat kidney [1],6.1 ± 0.8 min
same,decrease in sodium level in the inner medulla,rat kidney [1]; dynamic study,44±6%
same,reduction in sodium content in the inner medulla (summary statement),rat kidney [2]; diuretic steady state,50%
same,change of the cortical-outer medullar sodium gradient versus control,rat kidney [2]; diuresis steady state,five-fold reduction
same,cortical-outer medullar sodium gradient (slope),"rat kidney [2]; diuresis steady state, n=7",0.10±0.01 a.u.×mm^−1
same,cortico-outer medullar sodium gradient during furosemide diuresis,"rat kidney [2]; furosemide steady state diuresis, 10 mg/kg wt, n=7",0.10±0.01 a.u×mm^−1
same,effect on the corticomedullary sodium gradient,rat kidney [2]; steady state diuresis,almost completely cancelled; also recorded: almost complete cancellation
same,decrease in sodium signal intensity in the inner medulla,"rat kidney [2]; steady state diuresis, furosemide 1 mg/kg body weight, n=3",10±2%
same,decrease in sodium signal intensity in the inner medulla,"rat kidney [2]; steady state diuresis, furosemide 7 mg/kg body weight, n=4",40±4%
same,decrease of average sodium signal intensity in the inner medulla,rat kidney [2]; [5],47±5%
same,decrease of average sodium signal intensity in the outer medulla,rat kidney [2]; [5],6±2%
same,increase of average sodium signal intensity in the cortex,rat kidney [2]; [5],25%±3%
same,increase of urine sodium concentration compared to the control,[3],50±5%
OC[C@@H](O)[C@@H](O)[C@H](O)[C@H](O)CO [mannitol],characteristic time constant of sodium decay in the inner medulla,rat kidney [1],2.5 ± 0.4 min
same,total increase in sodium concentration in the cortex,"rat kidney [1]; dynamic study, after bolus injection",about 25%
same,rate of sodium reduction in the inner medulla relative to furosemide,"rat kidney [1]; dynamic study, p=0.002",twice as rapidly; also recorded: more than twofold faster; also recorded: twofold faster decay
same,decrease in sodium level in the inner medulla,rat kidney [1]; dynamic study,52±5%
same,reduction in sodium content in the inner medulla (summary statement),rat kidney [2]; diuretic steady state,50%
same,cortex to outer medulla sodium gradient relative to furosemide induced diuresis,rat kidney [2]; diuresis steady state,fivefold higher
same,change of the cortical-outer medullar sodium gradient versus control,rat kidney [2]; diuresis steady state,remained similar to that seen in control kidney
same,cortical-outer medullar sodium gradient (slope),"rat kidney [2]; diuresis steady state, n=7",0.45±0.12 a.u.×mm^−1
same,change of the cortical-outer medullar sodium gradient versus control,"rat kidney [2]; diuresis steady state, listed as Mannitol",did not affect
same,sodium concentration in the outer medulla compared to control,rat kidney [2]; diuretic steady state,increased compared to control
same,effect on the corticomedullary sodium gradient,rat kidney [2]; steady state diuresis,marked breakdown
same,decrease of urine sodium concentration compared to the control,[3],49±3%
same,decrease of sodium concentration in the inner medulla,rat kidney [4],52±1%
same,increase of sodium signal intensity in the cortex,rat kidney [4],20±2%
same,increase of sodium signal intensity in the outer medulla,rat kidney [4],13±1%
